According to US11957759B1, “Rapidly accelerated fibrosarcoma (RAF) degrading compounds and associated methods of use” (Arvinas Operations, Inc., priority 2022, dated 2024):

Key:
B-RAF V600E = biological target: T1, B-RAF V600E (Homo sapiens, UniProt P15056, V600E); test: Target protein degradation, assay A: T-Rex 293 cells, HA-B-RAF_V600E, 96 well format; assay type: cell-based; details: T-Rex 293 HA-B-RAF_V600E cells, 24 hours, Examples 1-82
T1 construct: expressed in transfected cells; host or cells: T-Rex 293 cells (Invitrogen #R71007)
Summary of the method: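 T-Rex 293 cells stably expressing doxycycline-inducible HA-B-RAF V600E (1 ng/mL doxycycline) treated 24 h at 37 °C with compound, final 1 μM to 0.1 nM in 0.1% DMSO. Fixed, permeabilized cells immunostained for HA and imaged by high-content microscopy; DC50 and Dmax (% of control) reported.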

B-RAF G466V = biological target: T2, B-RAF G466V (Homo sapiens, UniProt P15056, G466V); test: Target protein degradation, assay B: T-Rex 293 cells, HA-B-RAF_G466V, 96 well format; assay type: cell-based; details: T-Rex 293 HA-B-RAF_G466V cells, 24 hours, Examples 1-82
T2 construct: expressed in transfected cells; host or cells: T-Rex 293 cells (Invitrogen #R71007)
Summary of the method: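 T-Rex 293 cells stably carrying doxycycline-inducible HA-B-RAF G466V (0.75 ng/mL doxycycline) treated 24 h at 37 °C with compound, 30 nM to 3 pM final, 0.1% DMSO. Fixed, permeabilised, anti-HA immunofluorescence quantified by high-content imaging; DC50 and Dmax (% of control) derived.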

T1 sequence (P15056 whole entry V600E): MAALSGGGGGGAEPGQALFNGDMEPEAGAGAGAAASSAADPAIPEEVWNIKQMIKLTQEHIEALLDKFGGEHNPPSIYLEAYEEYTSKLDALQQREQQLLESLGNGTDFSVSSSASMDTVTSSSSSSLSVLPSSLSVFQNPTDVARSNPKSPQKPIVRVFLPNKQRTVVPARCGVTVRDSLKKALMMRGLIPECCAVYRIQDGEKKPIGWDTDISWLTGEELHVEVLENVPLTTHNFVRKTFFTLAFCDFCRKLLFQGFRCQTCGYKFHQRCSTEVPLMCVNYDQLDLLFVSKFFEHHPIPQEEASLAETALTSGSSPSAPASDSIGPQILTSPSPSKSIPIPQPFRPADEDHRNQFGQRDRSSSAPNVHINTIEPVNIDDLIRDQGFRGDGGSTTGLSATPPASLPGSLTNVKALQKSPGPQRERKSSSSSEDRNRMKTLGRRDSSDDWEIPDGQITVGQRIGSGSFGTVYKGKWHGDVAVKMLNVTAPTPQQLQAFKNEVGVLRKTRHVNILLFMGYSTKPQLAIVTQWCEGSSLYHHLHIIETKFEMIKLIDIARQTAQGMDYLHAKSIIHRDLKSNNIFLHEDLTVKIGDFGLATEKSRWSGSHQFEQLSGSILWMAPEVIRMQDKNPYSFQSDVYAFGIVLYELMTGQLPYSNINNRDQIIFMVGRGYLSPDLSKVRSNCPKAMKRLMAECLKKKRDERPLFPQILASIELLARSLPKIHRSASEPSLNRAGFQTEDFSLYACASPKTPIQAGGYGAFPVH
T2 sequence (P15056 whole entry G466V): as the sequence (P15056 whole entry V600E) above, with G466V, E600V counted along it

Row | SMILES | DC50 (B-RAF V600E) | Dmax (B-RAF V600E) | DC50 (B-RAF G466V) | Dmax (B-RAF G466V)
1 | N#Cc1c(NS(=O)(=O)N2CC[C@@H](F)C2)ccc(F)c1Oc1ccc2ncn(-c3ccc(N4CCN(C(=O)CC5(O)CCN(c6ccc(C7CCC(=O)NC7=O)cc6F)CC5)CC4)nc3)c(=O)c2c1 (stereo partly drawn) [Example 69, (3R)-N-{2-cyano-3-[(3-{6-[4-(2-{1-[4-(2,6-dioxopiperidin-3-yl)-2-fluorophenyl]-4-hydroxypiperidin-4-yl}acetyl)piperazin-1-yl]pyridin-3-yl}-4-oxo-3,4-dihydroquinazolin-6-yl)oxy]-4-fluorophenyl}-3-fluoropyrrolidine-1-sulfonamide] | 50 to 500 nM | 35 to 70% | 1 to 10 nM | 35 to 70%
2 | N#Cc1c(NS(=O)(=O)N2CC[C@@H](F)C2)ccc(F)c1Oc1ccc2ncn(-c3cnc(N4CCN(C(=O)CC5(O)CCN(c6ccc7c(c6)CN([C@H]6CCC(=O)NC6=O)C7=O)CC5)CC4)nc3)c(=O)c2c1 [Example 68, (3R)-N-(2-cyano-3-{[3-(2-{4-[2-(1-{2-[(3S)-2,6-dioxopiperidin-3-yl]-1-oxo-2,3-dihydro-1H-isoindol-5-yl}-4-hydroxypiperidin-4-yl)acetyl]piperazin-1-yl}pyrimidin-5-yl)-4-oxo-3,4-dihydroquinazolin-6-yl]oxy}-4-fluorophenyl)-3-fluoropyrrolidine-1-sulfonamide] | 50 to 500 nM | 35 to 70% | 1 to 10 nM | 35 to 70%
3 | N#Cc1c(NS(=O)(=O)N2CC[C@@H](F)C2)ccc(F)c1Oc1ccc2ncn(-c3ccc(N4CCC(CN5CCC(c6ccc7c(c6F)CN(C6CCC(=O)NC6=O)C7=O)CC5)CC4)cc3)c(=O)c2c1 (stereo partly drawn) [Example 79, (3R)—N-{2-cyano-3-[(3-{4-[4-({4-[2-(2,6-dioxopiperidin-3-yl)-4-fluoro-1-oxo-2,3-dihydro-1H-isoindol-5-yl]piperidin-1-yl}methyl)piperidin-1-yl]phenyl}-4-oxo-3,4-dihydroquinazolin-6-yl)oxy]-4-fluorophenyl}-3-fluoropyrrolidine-1-sulfonamide] | 50 to 500 nM | 35 to 70% | ≤ 1 nM | 35 to 70%
4 | N#Cc1c(NS(=O)(=O)N2CC[C@@H](F)C2)ccc(F)c1Oc1ccc2ncn(-c3ccn(C4CCN(CC5CCN(c6ccc7c(c6)CN(C6CCC(=O)NC6=O)C7=O)CC5)CC4)n3)c(=O)c2c1 (stereo partly drawn) [Example 75, (3R)—N-{2-cyano-3-[(3-{1-[1-({1-[2-(2,6-dioxopiperidin-3-yl)-1-oxo-2,3-dihydro-1H-isoindol-5-yl]piperidin-4-yl}methyl)piperidin-4-yl]-1H-pyrazol-3-yl}-4-oxo-3,4-dihydroquinazolin-6-yl)oxy]-4-fluorophenyl}-3-fluoropyrrolidine-1-sulfonamide] | 50 to 500 nM | 35 to 70% | 1 to 10 nM | ≤ 35%

The remaining lines, values ahead:

Row | DC50 (B-RAF V600E) | Dmax (B-RAF V600E) | DC50 (B-RAF G466V) | Dmax (B-RAF G466V) | SMILES
5 | > 500 nM |  | ≤ 1 nM | ≤ 35% | N#Cc1c(NS(=O)(=O)N2CC[C@@H](F)C2)ccc(F)c1Oc1ccc2ncn(C3CCN(CC4CCN(c5ccc6c(c5)CN(C5CCC(=O)NC5=O)C6=O)CC4)CC3)c(=O)c2c1 (stereo partly drawn) [Example 6, (3R)-N-[2-cyano-3-({3-[1-({1-[2-(2,6-dioxopiperidin-3-yl)-1-oxo-2,3-dihydro-1H-isoindol-5-yl]piperidin-4-yl}methyl)piperidin-4-yl]-4-oxo-3,4-dihydroquinazolin-6-yl}oxy)-4-fluorophenyl]-3-fluoropyrrolidine-1-sulfonamide]
6 | 50 to 500 nM | 35 to 70% | 1 to 10 nM | ≤ 35% | N#Cc1c(NS(=O)(=O)N2CC[C@@H](F)C2)ccc(F)c1Oc1ccc2ncn(-c3ccc(N4CCN(C(=O)CC5(O)CCN(c6ccc(NC7CCC(=O)NC7=O)cc6F)CC5)CC4)nc3)c(=O)c2c1 (stereo partly drawn) [Example 70, (3R)-N-(2-cyano-3-{[3-(6-{4-[2-(1-{4-[(2,6-dioxopiperidin-3-yl)amino]-2-fluorophenyl}-4-hydroxypiperidin-4-yl)acetyl]piperazin-1-yl}pyridin-3-yl)-4-oxo-3,4-dihydroquinazolin-6-yl]oxy}-4-fluorophenyl)-3-fluoropyrrolidine-1-sulfonamide]
7 | > 500 nM | 35 to 70% | 10 to 30 nM | 35 to 70% | N#Cc1c(NS(=O)(=O)N2CC[C@@H](F)C2)ccc(F)c1Oc1ccc2ncn(C3CCN(CCN4CCN(c5ccc6c(c5)CN(C5CCC(=O)NC5=O)C6=O)CC4)CC3)c(=O)c2c1 (stereo partly drawn) [Example 7, (3R)-N-[2-cyano-3-({3-[1-(2-{4-[2-(2,6-dioxopiperidin-3-yl)-1-oxo-2,3-dihydro-1H-isoindol-5-yl]piperazin-1-yl}ethyl)piperidin-4-yl]-4-oxo-3,4-dihydroquinazolin-6-yl}oxy)-4-fluorophenyl]-3-fluoropyrrolidine-1-sulfonamide]
8 | 5 to 50 nM | 35 to 70% | > 30 nM |  | N#Cc1c(NS(=O)(=O)N2CC[C@@H](F)C2)ccc(F)c1Oc1ccc2ncn(-c3ccc(N4CCN(CC5CCN(c6ccc(NC7CCC(=O)NC7=O)cc6F)CC5)CC4)cc3)c(=O)c2c1 (stereo partly drawn) [Example 11, (3R)-N-(2-cyano-3-{[3-(4-{4-[(1-{4-[(2,6-dioxopiperidin-3-yl)amino]-2-fluorophenyl}piperidin-4-yl)methyl]piperazin-1-yl}phenyl)-4-oxo-3,4-dihydroquinazolin-6-yl]oxy}-4-fluorophenyl)-3-fluoropyrrolidine-1-sulfonamide]
